Reference: US9988400B2 (Genentech, Inc., priority 2013, dated 2018)

Biological target: T1, HEK cells stably transfected with tetracycline inducible hNR1 and hNR2A (Homo sapiens, UniProt Q05586+Q12879)
T1 construct: expressed in transfected cells; host or cells: HEK cells, stably transfected, tetracycline/doxycycline inducible
Test: Assay 1: Cell-Based Assay, cytosolic calcium response to positive allosteric modulators (with 30 μM glycine and 300 nM L-glutamate, EC30)
Conditions: for Max %: responses scaled relative to 100 μM L-glutamate maximal response (100%) and 0 μM L-glutamate (0%); for EC50: cytosolic calcium response, with 30 μM glycine and 300 nM L-glutamate (EC30), — = no plateau was reached
How it was run: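 Cells induced 24 h with 7.5 μg mL^−1 doxycycline plus 500 μM (+)-ketamine, loaded 60 min at 37 °C with calcium dye in Mg-free HBSS (1.8 mM Ca, probenecid, 10 μM (+)-ketamine, pH 7.15). Peak RFU over 5 min after compound addition, scaled to 100 μM L-glutamate (100%) and 0 μM (0%); four-parameter Hill fit for EC50, max % if no plateau.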

T1 sequence (Q12879 23-1464, other chains not shown): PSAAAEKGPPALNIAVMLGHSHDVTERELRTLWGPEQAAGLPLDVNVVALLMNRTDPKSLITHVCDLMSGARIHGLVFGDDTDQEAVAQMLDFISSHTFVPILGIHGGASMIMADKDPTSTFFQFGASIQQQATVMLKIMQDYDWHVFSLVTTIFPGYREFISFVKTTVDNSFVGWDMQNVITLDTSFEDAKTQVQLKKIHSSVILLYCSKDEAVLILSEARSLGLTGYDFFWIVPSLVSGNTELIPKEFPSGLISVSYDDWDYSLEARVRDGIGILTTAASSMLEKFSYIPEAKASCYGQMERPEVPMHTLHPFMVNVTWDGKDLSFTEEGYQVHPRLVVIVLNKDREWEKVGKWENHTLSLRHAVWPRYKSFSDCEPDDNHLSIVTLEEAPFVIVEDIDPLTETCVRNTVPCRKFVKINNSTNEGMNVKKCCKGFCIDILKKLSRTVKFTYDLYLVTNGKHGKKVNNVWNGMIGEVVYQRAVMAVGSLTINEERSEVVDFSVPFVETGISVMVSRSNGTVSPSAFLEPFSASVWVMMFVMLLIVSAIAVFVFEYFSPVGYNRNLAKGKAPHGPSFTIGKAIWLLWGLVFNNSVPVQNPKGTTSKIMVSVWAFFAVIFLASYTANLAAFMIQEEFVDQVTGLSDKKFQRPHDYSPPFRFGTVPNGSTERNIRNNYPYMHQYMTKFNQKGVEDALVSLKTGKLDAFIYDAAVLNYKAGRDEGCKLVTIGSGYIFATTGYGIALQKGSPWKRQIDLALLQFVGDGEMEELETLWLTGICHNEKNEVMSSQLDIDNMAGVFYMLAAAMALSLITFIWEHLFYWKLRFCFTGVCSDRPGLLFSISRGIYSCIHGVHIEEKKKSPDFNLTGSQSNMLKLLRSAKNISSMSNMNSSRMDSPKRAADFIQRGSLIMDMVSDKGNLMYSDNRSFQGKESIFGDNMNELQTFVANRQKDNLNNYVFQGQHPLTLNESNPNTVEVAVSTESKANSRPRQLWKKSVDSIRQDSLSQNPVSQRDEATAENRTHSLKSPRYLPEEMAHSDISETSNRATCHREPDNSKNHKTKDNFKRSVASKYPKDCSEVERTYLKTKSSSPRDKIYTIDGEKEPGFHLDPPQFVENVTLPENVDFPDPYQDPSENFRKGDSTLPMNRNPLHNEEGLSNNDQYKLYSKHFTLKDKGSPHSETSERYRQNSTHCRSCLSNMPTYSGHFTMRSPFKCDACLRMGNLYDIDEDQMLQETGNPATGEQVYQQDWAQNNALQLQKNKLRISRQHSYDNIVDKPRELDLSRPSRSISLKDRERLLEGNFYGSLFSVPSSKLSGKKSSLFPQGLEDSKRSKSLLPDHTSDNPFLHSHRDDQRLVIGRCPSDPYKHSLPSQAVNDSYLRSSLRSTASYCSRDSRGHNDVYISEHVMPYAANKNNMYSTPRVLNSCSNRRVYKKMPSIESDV

Max % (Table 2) [%] | EC50 (Table 2) [nM] | EC50 (Table 3) [nM] | SMILES
66.5 | – | – | CCNC(=O)c1c(C)sc2nc(Cc3cccc4c3cnn4C)cc(=O)n12 [Example 21.38, N-ethyl-2-methyl-7-((1-methyl-1H-indazol-4-yl)methyl)-5-oxo-5H-thiazolo[3,2-a]pyrimidine-3-carboxamide]
161 | 385 | – | CCN(Cc1cc(=O)n2c3c(sc2n1)CCC3C#N)c1ccc(F)cc1 (stereo not drawn) [Example 8.12, 6-[(N-ethyl-4-fluoro-anilino)methyl]-8-oxo-2,3-dihydro-1H-cyclopenta[3,4]thiazolo[1,4-a]pyrimidine-1-carbonitrile]
186 | 593 | – | CCN(Cc1cc(=O)n2c(C(=O)NC)c(C)sc2n1)c1ccc(F)cc1 [Example 10.4, 7-[(N-ethyl-4-fluoro-anilino)methyl]-N,2-dimethyl-5-oxo-thiazolo[3,2-a]pyrimidine-3-carboxamide]
115 | 32900 | – | CC(=O)c1c(C)sc2nc(COc3ccc(F)cc3)cc(=O)n12 [Example 2.5, 3-acetyl-7-((4-fluorophenoxy)methyl)-2-methyl-5H-thiazolo[3,2-a]pyrimidin-5-one]
– | – | 147 | CCC(=O)c1c(C)sc2nc(Cn3nc(C(F)(F)F)cc3Cl)cc(=O)n12 [compound 140, 7-[[5-chloro-3-(trifluoromethyl)pyrazol-1-yl]methyl]-2-methyl-3-propanoyl-thiazolo[3,2-a]pyrimidin-5-one]
92.4 | – | – | CCNC(=O)c1c(C)sc2nc(Cc3cc(C#N)ccc3C3CC3)cc(=O)n12 [Example 21.66, 7-(5-cyano-2-cyclopropylbenzyl)-N-ethyl-2-methyl-5-oxo-5H-thiazolo[3,2-a]pyrimidine-3-carboxamide]
143 | 1300 | – | CCN(Cc1cc(=O)n2c(-c3cccs3)c(C)sc2n1)c1ccc(F)cc1 [Example 5.9, 7-((ethyl(4-fluorophenyl)amino)methyl)-2-methyl-3-(thiophen-2-yl)-5H-thiazolo[3,2-a]pyrimidin-5-one]
126 | 11400 | – | CCNC(=O)c1c(C)sc2nc(Cc3cccc(C#N)c3F)c(F)c(=O)n12 [Example 21.28, 7-(3-cyano-2-fluorobenzyl)-N-ethyl-6-fluoro-2-methyl-5-oxo-5H-thiazolo[3,2-a]pyrimidine-3-carboxamide]
147 | 8500 | – | Cc1sc2nc(Cc3cncc4ccccc34)cc(=O)n2c1[C@@H]1C[C@H]1CO (relative stereo) [Example 20.4, 3-(trans-2-(hydroxymethyl)cyclopropyl)-7-(isoquinolin-4-ylmethyl)-2-methyl-5H-thiazolo[3,2-a]pyrimidin-5-one]
178 | 2200 | – | CCN(Cc1cc(=O)n2c(C(C)O)csc2n1)c1ccc(F)cc1 (stereo not drawn) [Example 10.20, 7-[(N-ethyl-4-fluoro-anilino)methyl]-3-(1-hydroxyethyl)thiazolo[3,2-a]pyrimidin-5-one]
– | – | 1980 | CCNC(=O)c1c(C)sc2nc(CN(CC)c3ccc(F)cn3)cc(=O)n12 [compound 147, N-ethyl-7-[[ethyl-(5-fluoro-2-pyridyl)amino]methyl]-2-methyl-5-oxo-thiazolo[3,2-a]pyrimidine-3-carboxamide]
– | – | 932 | CNC(=O)c1c(C)sc2nc(Cc3cccc(C4CC4)c3F)cc(=O)n12 [compound 1, 7-[(3-cyclopropyl-2-fluoro-phenyl)methyl]-N,2-dimethyl-5-oxo-thiazolo[3,2-a]pyrimidine-3-carboxamide]
– | – | 73500 | Cc1sc2nc(Cn3nncc3C3CC3)cc(=O)n2c1C1CC1CO (stereo not drawn) [compound 153, 7-[(5-Cyclopropyltriazol-1-yl)methyl]-3-[2-(hydroxymethyl)cyclopropyl]-2-methyl-thiazolo[3,2-a]pyrimidin-5-one]
– | – | 47000 | CCN(Cc1cc(=O)n2c(C3CC3(C#N)CO)csc2n1)c1ccc(F)cc1 (stereo not drawn) [compound 220, 2-[7-[(N-Ethyl-4-fluoro-anilino)methyl]-5-oxo-thiazolo[3,2-a]pyrimidin-3-yl]-1-(hydroxymethyl)cyclopropanecarbonitrile]
